This is an account of results in article PMC10296415, “Methyl-Thiol-Bridged Oxadiazole and Triazole Heterocycles as Inhibitors of NF-κB in Chronic Myelogenous Leukemia Cells” (Biomedicines, 2023).

In one data set the test system is MCF-7 cell line. The data set can be described thus: MTT cell viability assay, MCF-7. Type of data set: cell-based. As to the method: (§1) MCF-7 cells were purchased from Procell Life Science and Technology Co., Ltd., Wuhan, China, and cultured in MEM or Leibovitz’s L-15 medium containing 2% FBS. MCF-7 cells were maintained in a 5% CO2-humidified atmosphere at 37 °C. KCL22, LAMA84, and K562 cells were obtained from the American Type Culture Collection (Manassas, VA, USA). The KBM5 cell line was previously provided by Dr. Bharat Aggarwal (University of Texas M.D. Anderson Cancer Center, Houston, TX, USA). KBM5 cells were cultured in IMDM medium with 10% inactivated FBS and 1% penicillin-streptomycin. KCL22, LAMA84, and K562 cells were cultured in RPMI with 10% FBS and 1% penicillin-streptomycin antibiotics and maintained at 37 °C in a 5% CO2 chamber.
(§2) Cells (1 × 10^4 cells/well) were seeded on a 96-well plate and treated with 4c (0, 5, 10, 15, 30, 50 µM) for 24 h. After 24 h of treatment, 30 µL of MTT solution (2 mg/mL) for 2 h, followed by MTT lysis overnight. Cell viability was analyzed by measuring the absorbance of lysed MTT crystals using VARIOSKAN LUX (Thermo Fisher Scientific Inc., Waltham, MA, USA) at 570 nm.

The test system of a further data set is MCF-10A cells. The data set is described as follows: Cytotoxicity assay, MCF-10A. Type of data set: cell-based. The conditions noted are these: Homo sapiens, MCF-10A; normal mammary epithelial cells. As to the method:
as §2

The test system of data set [1] is CML cells (KMB5, KCL22, LAMA84, and K562 cell lines). The data set can be described thus: MTT cell viability assay, CML cells. The class given is cell-based, human. The conditions noted are these: 0, 5, 10, 15, 30, 50 µM, 24 h. As to the method:
as §1, §2

A short description of data set [2]: MTT cell viability assay, PBMC. Type of data set: cell-based. The conditions noted are these: normal PBMC cells, 30 and 50 µM. As to the method: as §2
On the technique in general: Formazan colour is commonly taken as a measure of viable cells.

The next data set deals with NF-κB. The data set is described as follows: EMSA of TNFα-induced NF-κB DNA binding in CML cells. Type of data set: cell-based, human. The settings on record: 4c 0, 5, 15, 30 µM 2 h, then TNFα 0.5 nM 10 min; nuclear extracts. As to the method:
CML cells (1 × 10^6 cells/well) were treated with indicated concentrations of 4c (0, 5, 15, 30 µM) for 2 h, then TNFα (0.5 nM) for 10 min. Nuclei extracts were prepared from whole cell pellets and incubated with NF-κB oligonucleotides (5′-[…]-3′ and 5′-[…]-3′), and Oct-1 (5′-[…]-3′ and 5′-[…] -[…]-3′) was used for loading control. The protein–DNA complex was run on a 5% gel, and the respective proteins were detected using the EMSA kit (Waltham, MA, USA).

For a further data set, the system named is NF-κB-p65. The data set can be described thus: Immunocytochemistry of p65 nuclear translocation in CML cells. The class given is cell-based, human. The settings on record: 4c 30 µM 2 h, then TNFα 0.5 nM 10 min. As to the method: CML cells (1 × 10^6 cells/well) were treated with 4c (0 or 30 µM) for 2 h, followed by TNFα (0.5 nM) addition for 10 min. Further, the CML cells were fixed, permeabilized, and blocked with 5% BSA-PBS. The cells were visualized by using primary anti-p65 antibodies and secondary antibodies called Alexa Fluor® 594 donkey anti-rabbit IgG (H + L). Nuclei were stained with DAPI, and the immobilized cells were mounted with Fluorescent Mounting Medium (Golden Bridge International Labs, Mukilteo, WA, USA) and finally quantified using an Olympus FluoView FV1000 confocal microscope (Tokyo, Japan).

The subject of data set [3] is p-IKKα/β, p-IκBα, phospho-p65. The data set is described as follows: Western blot of NF-κB complex subunits in CML cells. The class given is cell-based, human. The settings on record: 4c 30 µM pre-treatment, TNFα 0.5 nM. As to the method: (§3) CML cells were treated with compound 4c, harvested, and the cell lysates were obtained. The required proteins of our interest were separated on SDS-PAGE and transferred into the nitrocellulose membrane. The membrane was incubated with primary antibody and HRP-conjugated secondary antibody in a sequential manner. The ECL kit (EZ-Western Lumi Femto, DOZEN) was used to detect the respective proteins.
A general note: In western blotting, separated proteins are transferred to a membrane and probed.

The test system of data set [4] is COX-2 binding to p65 promoter. The data set can be described thus: ChIP assay in CML cells. The class given is cell-based, human. The settings on record: 4c 0, 5, 15, 30 µM. As to the method:
CML cells (1 × 10^6 cells/well) were incubated with compound 4c (5, 15, 30 µM) for 24 h and immunoprecipitated with anti-NF-κB p65 antibody. RT-PCR was performed with COX-2 at 94 °C for 5 min, 94 °C for 30 s, 58 °C for 30 s, 72 °C for 30 s with 30 cycles, and extension at 72 for 7 min. All the experiments were performed 3 times as individual repeats.

For data set [5], the system named is survivin, MMP-9, Bcl-2/xl, VEGF, COX-2, PARP. The data set is described as follows: Western blot of NF-κB regulated proteins and PARP in CML cells. Type of data set: cell-based, human. The settings on record: 4c 30 µM pretreatment, TNFα 0.5 nM for 0, 6, 12, 24 h. As to the method: as §3

Bounds are passed on as bounds.

As usually defined, the IC50 is the concentration that gives 50% inhibition. Low values mean greater potency in that assay, high ones weaker potency in that assay. What is called viability is the share of living cells, or the viability signal relative to a control. Turning to `COc1ccc(Cc2nnc(SCc3cn(-c4ccc(Cl)c(Cl)c4)nn3)o2)cc1` [Compound 4c, 2-(((1-(3,4-Dichlorophenyl)-1H-1,2,3-triazol-4-yl)methyl)thio)-5-(4-methoxybenzyl)-1,3,4-oxadiazole], the IC50 in the data set on MCF-7 cell line (Homo sapiens, MCF7, viability of MCF-7 cell line) is 9 to 16 µM; in the data set with MCF-7 cell line (viability of MCF-7 cell line), 7.4 ± 0.87 µM; in the data set with MCF-10A cells, greater than 100 µM. Also, in data set [1], the “cell viability in CML cells” value is “concentration-dependent loss of cell viability”. In data set [2], this compound registered a viability at 24 h greater than 80%. Also, in the data set on NF-κB, the “binding of NF-κB to DNA induced by TNFα” value was “substantially inhibited”. For the same compound, the “translocation of NF-κB-p65 to nuclei” value with NF-κB-p65 was “suppressed the translocation of NF-κB-p65 to nuclei”. The “p-IKKα/β and p-IκBα induced by TNFα” value in data set [3] (cytoplasmic extracts) is on record as “inhibited”. Also, the phospho-p65 in nuclei entry in data set [3] (nuclear extracts) was “suppressed phospho-p65 in nuclei”. Moreover, the “p65 binding to the COX-2 promoter” value in data set [4] is reported as “markedly inhibited COX-2 binding to the p65 promoter”. The “cleavage of PARP” value in data set [5] is listed as “enhanced the cleavage of PARP”. Further, the “expression of anti-apoptotic proteins (survivin, MMP-9, Bcl-2/xl, VEGF, COX-2)” value in [5] was “suppressed the expression of these proteins”.
